Common to all, as to assay: NCI tumour cell line growth inhibition, 48 h
Assay [1] concerns COLO 205 colon.
For assay [2], the system named is HCT-15 colon.
Assay [3] relates to NCI-H23 lung.
Assay [4] has as its system OVCAR-8 ovarian.
The test system of assay [5] is SK-MEL-2 melanoma.
Assay [6] concerns TK-10 renal.

This note sets out measurements from PubChem BioAssay (NCI).

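48-hour exposure; five concentrations; linearly interpolated endpoints. TGI: concentration producing complete growth inhibition.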

`CC(=O)Nc1cc2c3c(c1)CCCN3CCC2`: the TGI in assay [1], in assay [2], in assay [3], in assay [4], in assay [5] and in assay [6] was more than 100 µM each time.
On to `CN(C)P(=O)(Oc1ccc(CC(NC(=O)OCc2ccccc2)C(=O)OCc2ccccc2)cc1)N(C)C` (centres undefined), for which the TGI stood at 42.8 µM in assay [1]; 33 µM in assay [2]; 28.1 µM in assay [3]; 33.2 µM in assay [4]; 31.5 µM in assay [5]; 47 µM in assay [6].
As for `CC(=O)O[C@H]1/C(=C/c2ccncc2)C[C@H]2[C@@H]3CC=C4C[C@@H](N5CCCC5)CC[C@]4(C)[C@H]3CC[C@]12C`, the TGI turned out to be 25.5 µM in assay [1]; 24.7 µM in assay [2]; 30.7 µM in assay [3]; 28.2 µM in assay [4]; 32.1 µM in assay [5]; 29.5 µM in assay [6].
Take `CC(C)NC(=O)OCc1c(COC(=O)NC(C)C)c(-c2cc[n+](COC(=O)C(C)(C)C)cc2)n2c1CCC2`: the TGI in assay [1], in assay [2], in assay [3], in assay [4], in assay [5] and in assay [6] was more than 100 µM throughout.
Consider `Cc1cc(S(=O)(=O)Nc2cc(N)[nH]n2)c(SCc2nc(N)nc(N(C)C)n2)cc1Cl`, for which the TGI in assay [1], in assay [2], in assay [3], in assay [4], in assay [5] and in assay [6] was more than 10 µM throughout.
With `O=S(=O)(O)c1ccc(N=Nc2c(O)ccc3cc(Br)ccc23)cc1`, the TGI in assay [1], in assay [2], in assay [3], in assay [4], in assay [5] and in assay [6] was more than 100 µM throughout.
Take `CCc1n[nH]c(=O)n1/N=C/c1ccc(C)cc1`: the TGI in assay [1], in assay [2], in assay [3], in assay [4], in assay [5] and in assay [6] was more than 100 µM each time.
Regarding `CCOC(=O)C(C)NC(=O)C(C)NC(=O)C(C)NC(=O)C(C)NC(=O)C(C)NC(=O)OCc1ccccc1` (centres undefined), the TGI in assay [1], in assay [2], in assay [3], in assay [4], in assay [5] and in assay [6] was more than 100 µM in each case.
`c1ccc(CNCCCCNCCCNCc2ccccc2)cc1`: the TGI in assay [1] was 27.6 µM; in assay [2] it was 39.4 µM; in assay [3], 47.4 µM; in assay [5], more than 100 µM; in assay [6] it was 77.4 µM.
For the molecule `CCCCC(Sc1cc(Cl)c(C)cc1S(=O)(=O)Nc1n[nH]c(N)n1)C(=O)OC` (centres undefined), the TGI in assay [1], in assay [2], in assay [3], in assay [4], in assay [5] and in assay [6] was more than 10 µM in each case.
For `COCCCNC(=O)C1=C(C)NC(C)=C(C(=O)NCCCOC)C1`, the TGI in assay [1], in assay [3], in assay [4], in assay [5] and in assay [6] was more than 100 µM in each case.
Regarding `CN(C)S(=O)(=O)/N=C/c1cccc(/C=N/S(=O)(=O)N(C)C)c1`, the TGI in assay [1], in assay [2], in assay [3], in assay [4] and in assay [6] was more than 100 µM each time.
`CN(C)CCN=C1Nc2ccccc2C(=S)N2CSCC12` (centres undefined): the TGI in assay [1], in assay [2], in assay [4], in assay [5] and in assay [6] was more than 100 µM in each case.
For `Cc1nc(N/N=C/c2ccccc2Cl)[nH]c(=O)c1CCO`, the TGI in assay [1] was more than 100 µM; in assay [2] it was more than 100 µM; in assay [3] it was more than 100 µM; in assay [4] it was 51.7 µM; in assay [6], more than 100 µM.
For the molecule `CCN(CC)c1ccc2cc(C(=O)Nc3ccccc3)c(=N)oc2c1`, the TGI in assay [1], in assay [2], in assay [4], in assay [5] and in assay [6] was more than 100 µM each time.
On to `CC1=C/C(=N\O)C(C(O)(C(F)(F)F)C(F)(F)F)C(C)(C)C1` (centres undefined), for which the TGI in assay [1], in assay [2], in assay [3], in assay [4] and in assay [6] was more than 10 µM throughout.
As for `COC(CC1(/C=C/O[Si](C(C)C)(C(C)C)C(C)C)C(=O)N(C)c2ccccc21)OC` (centres undefined), the TGI in assay [1], in assay [2], in assay [3], in assay [4] and in assay [5] was more than 100 µM in each case.
On to `CC(=O)Nc1ccc2[nH]c(-c3cccc(Cl)c3)cc(=O)c2c1`, for which the TGI in assay [1] was 39.9 µM; in assay [2], more than 100 µM; in assay [3], more than 100 µM; in assay [4], more than 100 µM; in assay [6], more than 100 µM.
For `CCOC(=O)c1c(Cl)nc2ccccc2c1N=[N+]=[N-]`, the TGI in assay [1] was 36.1 µM; in assay [2], 34.6 µM; in assay [3] it was more than 100 µM; in assay [5], 71.5 µM; in assay [6], 99.8 µM.
Consider `CC1=CC[C@@]2(CO)[C@@H]([C@@H]1C)[C@H]1CC[C@@H]3[C@@]4(C)CC[C@H](O)C(C)(C)[C@@H]4CC[C@@]3(C)[C@]1(C)C[C@@H]2O`, for which the TGI in assay [1] was 50.2 µM; in assay [2], more than 100 µM; in assay [3], 46.4 µM; in assay [4], 55 µM; in assay [6] it was 44.4 µM.
On to `COc1cc(S(=O)(=O)Nc2ccc(-c3csc(N)n3)cc2)ccc1Cl`, for which the TGI in assay [1] was 33.6 µM; in assay [2] it was 43.6 µM; in assay [3] it was 40.1 µM; in assay [4], 40.7 µM; in assay [5], 35 µM.
